The values that follow come from US8153431B2, “Compositions and methods for making mutations in cell lines and animals” (ABT Holding Company, priority 2001, dated 2012).

Test [1] deals with Jurkat cells. Nature of the test: Cell survival after ENU treatment (limiting dilution). It counts as cell-based, human. The settings on record: 2 hours, with 10 uM O-6-BG. The source says: (§1) The ability to identify all genetic mutations that can create a phenotype requires that large numbers of mutations be created in as few cells as possible, and the high efficiency of ENU chemical mutagenesis is suited to this task. We set out to determine the ENU treatment needed to create 50-100 cell libraries in which all genes are mutated at least once (defined as a 1× knockout library) in Jurkat cells. To characterize the mutagenesis we measured both cell survival and the mutation rate in characterizing the optimal ENU treatment (Table I). Survival was determined by limiting dilution, and the mutation rate was estimated in the population of surviving clones based on the frequency of knocking out the single copy HPRT gene (assayed by the survival of such HPRT^− cells upon culture in the presence of 6-thioguanine). As shown in the table below, at an ENU dose of 0.2 mg/ml the mutation rate is 0.02 HPRT^− genes/cell and the 1× library size is therefore ˜50 cells. Creation of libraries of these densely mutagenized cells provides a genetically sensitized background in which small increments of further mutagenesis can create phenotypes by knocking out the sole remaining wild type alleles of ENU-mutated genes.
• Jurkat cells were treated with 10 uM O-6-BG (Sigma) at 5×10^5 cells/ml for 16 hours at 37° C. in a humidified incubator with 5% CO2. The pretreated cells were then incubated with desired concentration of ENU (Sigma) in the presence of O-6-BG for 2 hours at 37° C. with constant shaking. At the end of incubation cells were washed with 10-volume 1×PBS three times and resuspended in complete media with 10 uM O-6-BG. 24 hours later O-6-BG was washed off, cells were resuspended in complete media and seeded onto 96-well plate at 20 cells per well or 400-2000 cells per well. Cells were then cultured for 10 days. Viability is determined by the lower density seeding based on number of wells containing growing colonies. To determine mutation frequency, cells seeded at the higher density were used to select for Hprt-loss of function mutants in the presence of 40 uM 6-TG (Sigma). Number of wells containing growing colonies in the presence of 6-TG was scored 7-10 days later. Mutation frequency is calculated as # of 6-TG resistant colony divided by # of viable cells seeded.

The test system of test [2] is single copy HPRT gene. Nature of the test: Mutation rate by knockout of single copy HPRT gene (6-thioguanine selection) in Jurkat cells. It counts as cell-based, human.
Description: as §1, with “As shown in the table below, at an ENU dose of 0.2 mg/ml the mutation rate is 0.02 HPRT^− genes/cell and the 1× library size is therefore ˜50 cells. Creation of libraries of these densely mutagenized cells provides a genetically sensitized background in which small increments of further mutagenesis can create phenotypes by knocking out the sole remaining wild type alleles of ENU-mutated genes.” left out
• Jurkat cells were treated with 10 uM O-6-BG (Sigma) at 5×10^5 cells/ml for 16 hours at 37° C. in a humidified incubator with 5% CO2. […] Viability is determined by the lower density seeding based on number of wells containing growing colonies. […] Number of wells containing growing colonies in the presence of 6-TG was scored 7-10 days later. Mutation frequency is calculated as # of 6-TG resistant colony divided by # of viable cells seeded.

`CCN(N=O)C(N)=O` [ENU, N-ethyl-N-nitrosourea]: the “% survival” value in test [1] (ENU 0.1 mg/ml) came to 1.83%; in test [1] (ENU 0.125 mg/ml), 0.93%; in test [1] (ENU 0.15 mg/ml), 1.08%; in test [1] (ENU 0.175 mg/ml), 0.88%; in test [1] (ENU 0.2 mg/ml), 0.29%; in test [1] (ENU 0.25 mg/ml), 0.07%. The mutation rate in test [2] (ENU dose of 0.2 mg/ml, Jurkat) was found to be 0.02 HPRT^− genes/cell. Also, in test [2] (Jurkat clones after 0.2 mg/ml ENU mutagenesis), the “genes in each cell with knockout in one copy” value is 1-3%.
